{"source": "paper PMC10008561", "about": "(Nature Communications, 2023)", "test_in_all_cases": "cell-based", "key": {"human KOR (GoA) [1]": {"biological_target": "T1, human KOR (GoA) (Homo sapiens, UniProt P41145, R274A)", "T1 construct": "expressed in transfected cells; host or cells: HEK293T", "T1 sequence (P41145 whole entry R274A)": "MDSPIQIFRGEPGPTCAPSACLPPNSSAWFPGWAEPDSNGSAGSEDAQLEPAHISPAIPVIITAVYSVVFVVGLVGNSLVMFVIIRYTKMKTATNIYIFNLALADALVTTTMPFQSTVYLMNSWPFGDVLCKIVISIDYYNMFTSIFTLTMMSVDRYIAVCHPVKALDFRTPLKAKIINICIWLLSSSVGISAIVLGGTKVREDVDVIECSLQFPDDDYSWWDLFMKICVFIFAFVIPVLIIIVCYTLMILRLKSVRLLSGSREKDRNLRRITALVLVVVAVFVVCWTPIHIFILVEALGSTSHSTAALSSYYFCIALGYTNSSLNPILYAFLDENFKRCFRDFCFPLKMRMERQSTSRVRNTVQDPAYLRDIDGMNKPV"}, "human KOR (GoA) [2]": {"biological_target": "T2, human KOR (GoA) (Homo sapiens, UniProt P41145, R170A)", "T2 construct": "expressed in transfected cells; host or cells: HEK293T", "T2 sequence (P41145 whole entry R170A)": "as the sequence (P41145 whole entry R274A) above, with R170A, A274R counted along it"}, "human KOR (GoA) [3]": {"biological_target": "T3, human KOR (GoA) (Homo sapiens, UniProt P41145, N141A)", "T3 construct": "expressed in transfected cells; host or cells: HEK293T", "T3 sequence (P41145 whole entry N141A)": "as the sequence (P41145 whole entry R274A) above, with N141A, A274R counted along it"}, "human KOR (GoA) [4]": {"biological_target": "T4, human KOR (GoA) (Homo sapiens, UniProt P41145, K200A)", "T4 construct": "expressed in transfected cells; host or cells: HEK293T", "T4 sequence (P41145 whole entry K200A)": "as the sequence (P41145 whole entry R274A) above, with K200A, A274R counted along it"}, "human KOR (GoA) [5]": {"biological_target": "T5, human KOR (GoA) (Homo sapiens, UniProt P41145, G319L)", "T5 construct": "expressed in transfected cells; host or cells: HEK293T", "T5 sequence (P41145 whole entry G319L)": "as the sequence (P41145 whole entry R274A) above, with A274R, G319L counted along it"}, "human KOR (GoA) [6]": {"biological_target": "T6, human KOR (GoA) (Homo sapiens, UniProt P41145, D105A)", "T6 construct": "expressed in transfected cells; host or cells: HEK293T", "T6 sequence (P41145 whole entry D105A)": "as the sequence (P41145 whole entry R274A) above, with D105A, A274R counted along it"}, "human KOR (GoA) [7]": {"biological_target": "T7, human KOR (GoA) (Homo sapiens, UniProt P41145, F114L)", "T7 construct": "expressed in transfected cells; host or cells: HEK293T", "T7 sequence (P41145 whole entry F114L)": "as the sequence (P41145 whole entry R274A) above, with F114L, A274R counted along it"}, "human KOR (GoA) [8]": {"biological_target": "T8, human KOR (GoA) (Homo sapiens, UniProt P41145, Y139L)", "T8 construct": "expressed in transfected cells; host or cells: HEK293T", "T8 sequence (P41145 whole entry Y139L)": "as the sequence (P41145 whole entry R274A) above, with Y139L, A274R counted along it"}, "human KOR (GoA) [9]": {"biological_target": "T9, human KOR (GoA) (Homo sapiens, UniProt P41145, Q115N)", "T9 construct": "expressed in transfected cells; host or cells: HEK293T", "T9 sequence (P41145 whole entry Q115N)": "as the sequence (P41145 whole entry R274A) above, with Q115N, A274R counted along it"}, "human KOR (GoA) [10]": {"biological_target": "T10, human KOR (GoA) (Homo sapiens, UniProt P41145, N326A)", "T10 construct": "expressed in transfected cells; host or cells: HEK293T", "T10 sequence (P41145 whole entry N326A)": "as the sequence (P41145 whole entry R274A) above, with A274R, N326A counted along it"}, "human KOR (GoA) [11]": {"biological_target": "T11, human KOR (GoA) (Homo sapiens, UniProt P41145, D334A)", "T11 construct": "expressed in transfected cells; host or cells: HEK293T", "T11 sequence (P41145 whole entry D334A)": "as the sequence (P41145 whole entry R274A) above, with A274R, D334A counted along it"}, "human KOR (GoA) [12]": {"biological_target": "T12, human KOR (GoA) (Homo sapiens, UniProt P41145, D155A)", "T12 construct": "expressed in transfected cells; host or cells: HEK293T", "T12 sequence (P41145 whole entry D155A)": "as the sequence (P41145 whole entry R274A) above, with D155A, A274R counted along it"}, "human KOR (GoA) [13]": {"biological_target": "T13, human KOR (GoA) (Homo sapiens, UniProt P41145, D266A)", "T13 construct": "expressed in transfected cells; host or cells: HEK293T", "T13 sequence (P41145 whole entry D266A)": "as the sequence (P41145 whole entry R274A) above, with D266A, A274R counted along it"}}, "note": "Values joined by “and” are separate entries in the source; they are usually repeats but may differ in a detail not shown here. Equal entries are not always repeated.", "data": [{"smiles": "CN(C(=O)/C=C/c1ccoc1)[C@@H]1CC[C@@]2(O)[C@H]3Cc4ccc(O)c5c4[C@@]2(CCN3CC2CC2)[C@H]1O5", "note": "[Nalfurafine, nalfurafine]", "values": [{"measurement": "FC vs wild type", "setting": "human KOR (GoA) [1]", "result": 479}, {"measurement": "Emax", "setting": "human KOR (GoA) [1]; HEK-293T", "result": 99.5, "unit": "%"}, {"measurement": "FC vs wild type", "setting": "human KOR (GoA) [2]", "result": "6 and ~10"}, {"measurement": "Emax", "setting": "human KOR (GoA) [2]; HEK-293T", "result": 86.9, "unit": "%"}, {"measurement": "FC vs wild type", "setting": "human KOR (GoA) [3]", "result": 9}, {"measurement": "Emax", "setting": "human KOR (GoA) [3]; HEK-293T", "result": 101, "unit": "%"}, {"measurement": "FC vs wild type", "setting": "human KOR (GoA) [4]", "result": 8}, {"measurement": "Emax", "setting": "human KOR (GoA) [4]; HEK-293T", "result": 91.4, "unit": "%"}, {"measurement": "FC vs wild type", "setting": "human KOR (GoA) [5]", "result": 20}, {"measurement": "Emax", "setting": "human KOR (GoA) [5]; HEK-293T", "result": 101, "unit": "%"}, {"measurement": "FC vs wild type", "setting": "human KOR (GoA) [6]", "result": 110}, {"measurement": "FC vs wild type", "setting": "human KOR (GoA) [7]", "result": 40}, {"measurement": "Emax", "setting": "human KOR (GoA) [7]; HEK-293T", "result": 67.4, "unit": "%"}, {"measurement": "FC vs wild type", "setting": "human KOR (GoA) [8]", "result": 3}, {"measurement": "FC vs wild type", "setting": "human KOR (GoA) [9]", "result": 24}, {"measurement": "Emax", "setting": "human KOR (GoA) [9]; HEK-293T", "result": 65.8, "unit": "%"}, {"measurement": "FC vs wild type", "setting": "human KOR (GoA) [10]", "result": 4}, {"measurement": "Emax", "setting": "human KOR (GoA) [10]; HEK-293T", "result": 103, "unit": "%"}, {"measurement": "FC vs wild type", "setting": "human KOR (GoA) [11]", "result": 18}, {"measurement": "Emax", "setting": "human KOR (GoA) [11]; HEK-293T", "result": 96.9, "unit": "%"}, {"measurement": "FC vs wild type", "setting": "human KOR (GoA) [12]", "result": "9 and < 10"}, {"measurement": "Emax", "setting": "human KOR (GoA) [12]; HEK-293T", "result": 95.7, "unit": "%"}, {"measurement": "FC vs wild type", "setting": "human KOR (GoA) [13]", "result": 132}, {"measurement": "Emax", "setting": "human KOR (GoA) [13]; HEK-293T", "result": 108, "unit": "%"}]}]}
